# Assays:
# Oral bioavailability = type: in vivo
# Animal models = assay: In vivo efficacy in animal models
# [1] = system: genetically defined cancer cells; assay: Target methyl mark inhibition and killing of cancer cells in vitro; type: cell-based
smiles,measurement,setting,value
CCN(c1cc(-c2ccc(CN3CCOCC3)cc2)cc(C(=O)NCc2c(C)cc(C)[nH]c2=O)c1C)C1CCOCC1 [Compound 44],oral bioavailability,Oral bioavailability,orally bioavailable
same,in vivo efficacy following inhibition of target methyl mark,Animal models,sustained in vivo efficacy
same,target methyl mark inhibition resulting in killing of cancer cells,[1],killing of genetically defined cancer cells in vitro

# — patent publication US11786533B2, “Use of EZH2 inhibitors for treating cancer” (Epizyme, Inc., priority 2016, dated 2023)
